Results reported in US20240360178A1, “MACROCYCLIC IMMUNOMODULATORS” (Bristol-Myers Squibb Company, priority 2021, published 2024).
Positions of bridges follow the written chain, without caps; N, C: chain ends. Non-standard residues stand in square brackets, D forms with d. Residues, ends and D or L forms follow the SMILES beside them. *: point of attachment. Phe(4-CONH2) = NC(=O)c1ccc(C[C@H](N)C(=O)O)cc1; Phe(4-COOH) = N[C@@H](Cc1ccc(C(=O)O)cc1)C(=O)O; Bip = N[C@@H](Cc1ccc(-c2ccccc2)cc1)C(=O)O; Phe(3-Me) = Cc1cccc(C[C@H](N)C(=O)O)c1; Val(3-OH) = CC(C)(O)[C@H](N)C(=O)O; NMeF = CN[C@@H](Cc1ccccc1)C(=O)O; 4Pal = N[C@@H](Cc1ccncc1)C(=O)O; Cha = N[C@@H](CC1CCCCC1)C(=O)O; Cit = NC(=O)NCCC[C@H](N)C(=O)O; Carboxymethyl = O=C(O)C*; NMeA = CN[C@@H](C)C(=O)O; Orn = NCCC[C@H](N)C(=O)O; Dab = NCC[C@H](N)C(=O)O; Dap = NC[C@H](N)C(=O)O; Sar = CNCC(=O)O

biological target: T1, human PD-1 (Jurkat-PD-1 cells) / PE-labeled human PD-L1-Ig (Homo sapiens, UniProt Q15116); experiment: Jurkat-PD-1 Cell Binding High-Content Screening Assay (CBA); Jurkat hPD1-PDL1 assay; conditions: Jurkat cell line over-expressing human PD-1; PE-labeled PD-L1-Ig 20 nM final; compound incubated 2 hours at 37° C.; read-out: Jurkat HPD1-PDL1 IC50
T1 construct: expressed in transfected cells; host or cells: Jurkat cell line over-expressing human PD-1
T1 sequence (Q15116 25-288): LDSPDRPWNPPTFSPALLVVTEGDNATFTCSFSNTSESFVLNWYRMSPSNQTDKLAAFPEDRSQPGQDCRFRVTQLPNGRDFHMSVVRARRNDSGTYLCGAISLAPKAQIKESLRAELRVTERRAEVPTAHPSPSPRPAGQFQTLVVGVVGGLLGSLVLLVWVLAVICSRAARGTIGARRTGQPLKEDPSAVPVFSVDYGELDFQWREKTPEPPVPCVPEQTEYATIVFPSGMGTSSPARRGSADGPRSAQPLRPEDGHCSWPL
Procedure, shortened: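 Binding of phycoerythrin-conjugated PD-L1-Ig (20 nM final) to PD-1-overexpressing Jurkat cells was read by high-content imaging. Cells in DMEM/10% FCS were exposed to compound for 2 hours at 37° C before labeled ligand was added.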

SMILES	IC50 [nM]
CC(C)C[C@@H]1NC(=O)[C@H](Cc2c[nH]c3ccccc23)NC(=O)[C@H](CC(=O)O)NC(=O)[C@H](Cc2ccc(O)cc2)NC(=O)[C@H](Cc2ccccc2)NC(=O)CSC[C@@H](C(=O)NCC(N)=O)NC(=O)[C@H](CO)NC(=O)[C@H](C(C)C)NC(=O)[C@H](CC(C)C)NC(=O)[C@H](CCCNC(=N)N)NC(=O)[C@H](Cc2ccccc2)N(C)C(=O)[C@H](C)N(C)C(=O)[C@H](CCCNC(=N)N)NC(=O)[C@H](Cc2ccc(-c3ccccc3)cc2)NC1=O [Example 1327] ({CH2CO}-FYDWL[Bip]R[NMeA][NMeF]RLVSCG-NH2; thioether N-14)	120
Cc1cccc(C[C@@H]2NC(=O)[C@H](CC(=O)O)NC(=O)[C@H](Cc3ccc(OCC(=O)O)cc3)NC(=O)[C@H](Cc3ccncc3)NC(=O)CSC[C@@H](C(=O)N[C@@H](CCN)C(N)=O)NC(=O)[C@H](CO)NC(=O)[C@H](C(C)(C)O)NC(=O)[C@H](CC3CCCCC3)NC(=O)[C@H](CCN)NC(=O)[C@H]3CCCN3C(=O)[C@H](C)N(C)C(=O)[C@H](CCCNC(N)=O)NC(=O)[C@H](Cc3ccc(-c4ccccc4)cc3)NC(=O)[C@H](Cc3ccc(OCC(=O)O)cc3)NC2=O)c1 [Example 1180] ({CH2CO}-[4Pal]Y(Carboxymethyl)D[Phe(3-Me)]Y(Carboxymethyl)[Bip][Cit][NMeA][dP][Dab][Cha][Val(3-OH)]SC[Dab]-NH2; thioether N-14)	20
CC(C)C[C@@H]1NC(=O)[C@H](CCCN)NC(=O)[C@H](Cc2ccccc2)N(C)C(=O)[C@H](C)N(C)C(=O)[C@H](CCC(=O)O)NC(=O)[C@H](Cc2ccc(-c3ccccc3)cc2)NC(=O)[C@H](C(C)C)NC(=O)[C@H](Cc2c[nH]c3ccccc23)NC(=O)[C@H](CC(=O)O)NC(=O)[C@H](Cc2ccc(O)cc2)NC(=O)[C@H](Cc2ccccc2)NC(=O)CSC[C@@H](C(=O)N[C@@H](CCC(=O)O)C(N)=O)NC(=O)[C@H]([C@@H](C)O)NC(=O)[C@H](C(C)C)NC1=O [Example 1350] ({CH2CO}-FYDWV[Bip]E[NMeA][NMeF][Orn]LVTCE-NH2; thioether N-14)	210
COc1ccc(C[C@@H]2NC(=O)CSC[C@@H](C(=O)NCC(N)=O)NC(=O)[C@H](CO)NC(=O)[C@H](C(C)C)NC(=O)[C@H](CC(C)C)NC(=O)[C@H](CC(N)=O)NC(=O)CN(C)C(=O)[C@H](C)N(C)C(=O)[C@H](C(C)C)NC(=O)[C@H](Cc3ccc(-c4ccccc4)cc3)NC(=O)[C@H](CC(C)C)NC(=O)[C@H](Cc3c[nH]c4ccccc34)NC(=O)[C@H](CC(=O)O)NC(=O)[C@H](Cc3ccc(O)cc3)NC2=O)cc1 [Example 1138] ({CH2CO}-Y(Me)YDWL[Bip]V[NMeA][Sar]NLVSCG-NH2; thioether N-14)	570
CC(C)C[C@@H]1NC(=O)[C@H](CC(N)=O)NC(=O)[C@H]2CCCN2C(=O)[C@H](C)N(C)C(=O)[C@H](C(C)C)NC(=O)[C@H](Cc2ccc(-c3ccccc3)cc2)NC(=O)[C@@H](CC(C)C)NC(=O)[C@H](Cc2c[nH]c3ccccc23)NC(=O)[C@H](CC(=O)O)NC(=O)[C@H](Cc2ccc(C(=O)O)cc2)NC(=O)[C@H](Cc2ccncc2)NC(=O)CSC[C@@H](C(=O)N[C@@H](C)C(N)=O)NC(=O)[C@@H](CO)NC(=O)[C@H](C(C)C)NC1=O [Example 1389] ({CH2CO}-[4Pal][Phe(4-COOH)]DW[dL][Bip]V[NMeA][dP]NLV[dS]CA-NH2; thioether N-14)	50
CC(C)C[C@@H]1NC(=O)[C@H](CCCNC(=N)N)NC(=O)[C@H](Cc2ccccc2)N(C)C(=O)[C@H](C)N(C)C(=O)[C@H](CCCNC(=N)N)NC(=O)[C@H](Cc2ccc(-c3ccccc3)cc2)NC(=O)[C@H](C(C)C)NC(=O)[C@H](Cc2c[nH]c3ccccc23)NC(=O)[C@H](CC(=O)O)NC(=O)[C@H](Cc2ccc(O)cc2)NC(=O)[C@H](Cc2ccc(C(N)=O)cc2)NC(=O)CSC[C@@H](C(=O)NCC(N)=O)NC(=O)[C@H](CO)NC(=O)[C@H](C(C)C)NC1=O [Example 1257] ({CH2CO}-[Phe(4-CONH2)]YDWV[Bip]R[NMeA][NMeF]RLVSCG-NH2; thioether N-14)	80
CC(C)C[C@@H]1NC(=O)[C@H](Cc2c[nH]c3ccccc23)NC(=O)[C@H](CC(=O)O)NC(=O)[C@H](Cc2ccc(O)cc2)NC(=O)[C@H](Cc2ccccc2)NC(=O)CSC[C@@H](C(=O)N[C@@H](CO)C(N)=O)NC(=O)[C@H](CO)NC(=O)[C@H](C(C)C)NC(=O)[C@H](CC(C)C)NC(=O)[C@H](CC(N)=O)NC(=O)CN(C)C(=O)[C@H](C)N(C)C(=O)[C@H](C(C)C)NC(=O)[C@H](Cc2ccc(-c3ccccc3)cc2)NC1=O [Example 1173] ({CH2CO}-FYDWL[Bip]V[NMeA][Sar]NLVSCS-NH2; thioether N-14)	950
CC(C)C[C@@H]1NC(=O)[C@H](CCCNC(=N)N)NC(=O)[C@H](Cc2ccccc2)N(C)C(=O)[C@H](C)N(C)C(=O)[C@H](CCCNC(=N)N)NC(=O)[C@H](Cc2ccc(-c3ccccc3)cc2)NC(=O)[C@H](C(C)C)NC(=O)[C@H](Cc2c[nH]c3ccccc23)NC(=O)[C@H](CC(=O)O)NC(=O)[C@H](Cc2ccc(O)cc2)NC(=O)[C@H](Cc2ccccc2)NC(=O)CSC[C@@H](C(=O)N[C@H](C(N)=O)C(C)C)NC(=O)[C@H](CO)NC(=O)[C@H](C(C)C)NC1=O [Example 1167] ({CH2CO}-FYDWV[Bip]R[NMeA][NMeF]RLVSCV-NH2; thioether N-14)	910
CC(C)C[C@@H]1NC(=O)[C@H](CCCNC(=N)N)NC(=O)[C@H](Cc2ccccc2)N(C)C(=O)[C@H](C)N(C)C(=O)[C@H](CCCNC(=N)N)NC(=O)[C@H](Cc2ccc(-c3ccccc3)cc2)NC(=O)[C@H](C(C)C)NC(=O)[C@H](Cc2c[nH]c3ccccc23)NC(=O)[C@H](CC(=O)O)NC(=O)[C@H](Cc2ccc(O)cc2)NC(=O)[C@H](CCC(N)=O)NC(=O)CSC[C@@H](C(=O)N[C@@H](C)C(N)=O)NC(=O)[C@H](CO)NC(=O)[C@H](C(C)C)NC1=O [Example 1296] ({CH2CO}-QYDWV[Bip]R[NMeA][NMeF]RLVSCA-NH2; thioether N-14)	140
CC(C)C[C@@H]1NC(=O)[C@H](CCCNC(=N)N)NC(=O)[C@H](Cc2ccccc2)N(C)C(=O)[C@H](C)N(C)C(=O)[C@H](CCCNC(=N)N)NC(=O)[C@H](Cc2ccc(-c3ccccc3)cc2)NC(=O)[C@H](C(C)C)NC(=O)[C@H](Cc2c[nH]c3ccccc23)NC(=O)[C@H](CC(=O)O)NC(=O)[C@H](Cc2ccc(O)cc2)NC(=O)[C@H](Cc2ccc(O)cc2)NC(=O)CSC[C@@H](C(=O)NCC(N)=O)NC(=O)[C@H](CO)NC(=O)[C@H](C(C)C)NC1=O [Example 1068] ({CH2CO}-YYDWV[Bip]R[NMeA][NMeF]RLVSCG-NH2; thioether N-14)	170
CC(C)C[C@@H]1NC(=O)[C@H](CCCNC(=N)N)NC(=O)[C@H](Cc2ccccc2)N(C)C(=O)[C@H](C)N(C)C(=O)[C@H](CN)NC(=O)[C@H](Cc2ccc(-c3ccccc3)cc2)NC(=O)[C@H](C(C)C)NC(=O)[C@H](Cc2c[nH]c3ccccc23)NC(=O)[C@H](CC(=O)O)NC(=O)[C@H](Cc2ccc(O)cc2)NC(=O)[C@H](Cc2ccccc2)NC(=O)CSC[C@@H](C(=O)NCC(N)=O)NC(=O)[C@H](CO)NC(=O)[C@H](C(C)C)NC1=O [Example 1242] ({CH2CO}-FYDWV[Bip][Dap][NMeA][NMeF]RLVSCG-NH2; thioether N-14)	240
